In ChEMBL document CHEMBL3137667, “[Drug-induced liver injury; fourteenth updated edition of the bibliographic database of liver injuries and related drugs]” (Gastroenterol Clin Biol, 2004):

How the values were obtained:
[1] = human, serum, 4383 h
[2] = Times to onset, minimal and maximal, observed in the indexed observations. [column 'DELAI' in source]; details: human
[3] = Highest frequency of acute liver toxicity observed during clinical trials, expressed as a percentage. [column '% AIGUE' in source]; details: human
[4] = human
[5] = human; remark: listed apart in the source
[6] = human; remark: listed apart in the source
[7] = human; remark: listed apart in the source
[8] = human, serum
[9] = human, serum; remark: listed apart in the source
[10] = human; remark: listed apart in the source
[11] = human; remark: listed apart in the source
[12] = human; remark: listed apart in the source
[13] = Highest frequency of moderate liver toxicity observed during clinical trials, expressed as a percentage. [column '% BIOL' in source]; details: human
[14] = human; remark: listed apart in the source
[15] = human; remark: listed apart in the source
[16] = human; remark: listed apart in the source
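Wherever Hepatotoxicity (association with vascular disease) is given: count of indexed literature references reporting vascular liver injury in humans, e.g. peliosis hepatitis, hepatic veno-occlusive disease or Budd-Chiari syndrome.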
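Wherever Hepatotoxicity (benign tumour) is given: value is a count of indexed literature references citing a benign tumour confirmed by histopathology.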
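Wherever Hepatotoxicity (choleostasis) is given: human cholestatic liver injury, shown by histopathology or by peak ALT or AST elevation over alkaline phosphatase ratio below 2, value counts indexed literature reports.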
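Wherever Hepatotoxicity (chronic liver disease) is given: chronic liver injury confirmed by histopathology or persistently raised serum aminotransferase activity beyond 6 months, value given as the count of indexed literature references.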
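Wherever Hepatotoxicity (cirrhosis) is given: value is a count of indexed literature references reporting cirrhosis confirmed by histopathology.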
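Wherever Hepatotoxicity (cytolytic) is given: human cytolytic liver injury, shown by histopathology or by a ratio above 5 of peak ALT or AST elevation to alkaline phosphatase elevation, value counts indexed references.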
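Wherever Hepatotoxicity (granulomatous hepatitis) is given: value is a count of indexed literature references reporting granulomatous liver disease confirmed by histopathology.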
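Wherever Hepatotoxicity (malignant tumour) is given: malignant tumour confirmed by histopathology, value gives the count of indexed literature references reporting it.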
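Wherever Hepatotoxicity (severe hepatitis) is given: human clinical data: severe hepatitis, meaning potentially life-threatening liver failure or clinically observed cases, the value counts how many indexed literature references report it.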
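Wherever Hepatotoxicity (steatosis) is given: steatosis confirmed by histopathology, value is the count of indexed references.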

| SMILES | Hepatotoxicity (chronic liver disease) [1] | Hepatotoxicity (time to onset) [2] | Hepatotoxicity (acute) [3] [%] | Hepatotoxicity (cirrhosis) [4] | Hepatotoxicity (association with vascular disease) [5] | Hepatotoxicity (granulomatous hepatitis) [6] | Hepatotoxicity (severe hepatitis) [7] | Hepatotoxicity (acute) [8] | Hepatotoxicity (moderate) [9] | Hepatotoxicity (benign tumour) [10] | Hepatotoxicity (steatosis) [11] | Hepatotoxicity (malignant tumour) [12] | Hepatotoxicity (moderate) [13] [%] | Hepatotoxicity (choleostasis) [14] | Hepatotoxicity (cytolytic) [15] | Hepatotoxicity (animal toxicity known) [16] | other results |
| --- | --- | --- | --- | --- | --- | --- | --- | --- | --- | --- | --- | --- | --- | --- | --- | --- | --- |
| COc1ccc(NS(=O)(=O)c2ccc(N)cc2)nn1 [SULFAMETHOXYPYRIDAZINE] | 0 | 1 month - 2 months | 0 | 0 | 0 | 0 | 0 | 4 | 0 | 0 | 0 | 0 | 0 | 2 | 4 | yes | – |
| CNCCC=C1c2ccccc2CCc2ccccc21 [NORTRIPTYLINE] | 0 | 2 months - 3 months | – | 0 | 0 | – | – | 2 | 1 | 0 | 0 | 0 | – | – | – | yes | Hepatotoxicity (acute) ([3]; Liver): 0%; Hepatotoxicity (granulomatous hepatitis) ([6]; Liver): 0; Hepatotoxicity (severe hepatitis) ([7]; Liver): 2; Hepatotoxicity (moderate) ([13]; Liver): 0%; Hepatotoxicity (choleostasis) ([14]; Liver): 0; Hepatotoxicity (cytolytic) ([15]; Liver): 2 |
| OC(c1cc(C(F)(F)F)nc2c(C(F)(F)F)cccc12)C1CCCCN1 (stereo not given) [MEFLOQUINE] | 0 | 2 weeks - 3 weeks | 0 | 0 | 0 | 0 | 0 | 2 | 5 | 0 | 1 | 0 | 22.5 | 0 | 1 | yes | – |
| N=C(N)c1ccc(/C=C/c2ccc(C(=N)N)cc2)cc1 [STILBAMIDINE] | 0 | 1 month - 3 months | 0 | 0 | 0 | 0 | 0 | 1 | 0 | 0 | 0 | 0 | 0 | 0 | 1 | yes | – |
| COc1cc(NS(C)(=O)=O)ccc1Nc1c2ccccc2nc2ccccc12 [AMSACRINE] | 0 | 5 days - 1 month | 0 | 0 | 0 | 0 | 4 | 2 | 10 | 0 | 1 | 0 | 41 | 0 | 2 | yes | – |
| COC(=O)[C@H]1[C@H]2C[C@@H]3c4[nH]c5cc(OC)ccc5c4CCN3C[C@H]2C[C@@H](OC(=O)c2cc(OC)c(OC)c(OC)c2)[C@@H]1OC [RESERPINE] | 0 | 1 year | 0 | 0 | 0 | 0 | 0 | 3 | 0 | 0 | 0 | 0 | 0 | 1 | 0 | yes | – |
| O=NN(CCCl)C(=O)NC1CCCCC1 [LOMUSTINE] | 0 | 2 days - 4 months | 0 | 0 | 0 | 0 | 1 | 2 | 4 | 0 | 0 | 0 | 39 | 2 | 1 | yes | – |
| CCN1CC(CCN2CCOCC2)C(c2ccccc2)(c2ccccc2)C1=O (stereo not given) [DOXAPRAM] | 0 | 1 day - 5 days | 0 | 0 | 0 | 0 | 0 | 1 | 1 | 0 | 1 | 0 | 0 | 0 | 1 | yes | – |
| O=c1[nH]c(=O)n([C@@H]2O[C@H](CO)[C@@H](O)[C@@H]2F)cc1I [FIALURIDINE] | 0 | 9.5 weeks - 4 months | 33.3 | 0 | 0 | 0 | 3 | 1 | 0 | 0 | 1 | 0 | 0 | 0 | 0 | yes | – |
| N[C@@H](Cc1cc(I)c(Oc2cc(I)c(O)c(I)c2)c(I)c1)C(=O)O [LEVOTHYROXINE] | 0 | 12 days - 4 years | 0 | 1 | 0 | 0 | 0 | 1 | 1 | 0 | 0 | 0 | 0 | 0 | 0 | yes | – |
